Measured values as given in patent publication US20130095194A1 (L'Air Liquide, Société Anonyme pour I'Etude et …, priority 2011, published 2013).

Tested on: neuropathic pain caused by oxaliplatin in rats
Assay: Randall-Selitto pain thresholds in rats given repeated intraperitoneal oxaliplatin (chemo-induced neuropathic pain model)
Experimental: A preclinical study in rats was carried out.
In order to mimic the clinical use as closely as possible, a series of 8 intraperitoneal injections of oxaliplatin were given every 3 to 4 days, as illustrated in FIG. 2. This model is well known in the literature and gives an account of chemo-induced neuropathic pain.
The pain thresholds were evaluated by means of a Randall-Selitto device by applying an increasing pressure to the paw of the rat until the animal lets out a cry. The corresponding weight in grams is then noted (the Y-axis in FIG. 2). Thus, the earlier the animal cries out, for a low weight, the more pain it has.

`O=C1[O][Pt]2([NH][C@@H]3CCCC[C@H]3[NH]2)[O]C1=O` [oxaliplatin] was tested, and the “pain thresholds (Randall-Selitto, weight at which the animal cries out)” value (group B: oxaliplatin 2 mg/kg, 8 intraperitoneal injections every 3 to 4 days, with N2/O2 (50%-50%) control gas for 1 hour, control group A 200 g) was “approximately 150 g” and the “persistence of hypersensitivity to pain after the final administration of oxaliplatin” value (group B, final administration on D25, still present on D42) was “more than 2 weeks”.
With `[Xe]` [xenon] the “hypersensitivity to pain (pain threshold curve versus control group A)” value (rats given oxaliplatin 2 mg/kg, gas/O2 (50%-50%) inhaled for 1 hour with each administration) was “no sign of hypersensitivity to pain”.
